According to PMC12562640, “Investigating Amphoteric 3,4′-Biscoumarin-Based ortho-[(Dialkylamino)methyl]phenols as Dual MAO and ChE Inhibitors” (International Journal of Molecular Sciences, 2025):
Converted amounts (≈) assume the structure as drawn. “And” between values parts separate entries of the source, which are not always exact repeats. Identical values can stand only once. “Also recorded” adds a separate entry of the source. Like-named read-outs stand apart in the source and are kept apart here.

Legend:
human MAO-A [1] = biological target: T1, human MAO-A (Homo sapiens, UniProt P21397); assay: biochemical; type: biochemical
T1 construct: purchased Sigma Aldrich; host or cells: insect cells infected with baculovirus (microsomes)
T1 sequence (P21397 1-527): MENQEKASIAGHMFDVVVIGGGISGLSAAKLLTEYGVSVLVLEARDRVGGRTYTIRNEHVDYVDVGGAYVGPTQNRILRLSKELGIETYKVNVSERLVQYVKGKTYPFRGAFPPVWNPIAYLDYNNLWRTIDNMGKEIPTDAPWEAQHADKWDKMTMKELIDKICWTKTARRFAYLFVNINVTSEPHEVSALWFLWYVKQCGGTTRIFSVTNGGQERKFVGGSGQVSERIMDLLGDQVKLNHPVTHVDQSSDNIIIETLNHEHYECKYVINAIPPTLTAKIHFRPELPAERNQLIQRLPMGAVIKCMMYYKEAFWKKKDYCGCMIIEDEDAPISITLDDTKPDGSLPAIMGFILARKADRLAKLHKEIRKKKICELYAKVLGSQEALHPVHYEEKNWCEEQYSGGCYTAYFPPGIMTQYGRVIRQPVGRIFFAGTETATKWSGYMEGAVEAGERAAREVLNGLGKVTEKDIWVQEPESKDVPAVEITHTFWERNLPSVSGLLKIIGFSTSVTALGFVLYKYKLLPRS
Experimental: (§1) The inhibition assays of human monoamine oxidases were conducted using a fluorescence-based method with kynuramine as a non-selective substrate for each isoform, MAO-A/B [44, 45, 46]. Recombinant human MAO-A and MAO-B (microsomes from insect cells infected with baculovirus; Sigma Aldrich, St. Louis, MO, USA) (Merk Life Science S.r.l., Milan, Italy) were used. The measurements were performed in triplicate in black round-bottom polystyrene 96-well plates (Greiner Bio-One, Kremsmünster, Austria). […] In the MAO inhibition assays, all compounds were initially screened at a concentration of 10 µM. Each of them was preincubated at 37 °C for 20 min with 50 µM kynuramine in a phosphate buffer (PBS, 0.1 M, pH 8.0), adjusted to 0.39 osmolarity with KCl. After adding recombinant human MAO-A/B (250 U/mg and 59 U/mg, respectively) and incubating for another 30 min, NaOH was added. The fluorescence was measured at excitation/emission wavelengths of 310/400 nm. […] The IC50 is reported as the mean ± SD of three independent experiments, each performed in duplicate.

human huMAO-B = biological target: T2, human huMAO-B (Homo sapiens, UniProt P27338); assay: biochemical; type: biochemical
T2 construct: purchased Sigma Aldrich; host or cells: insect cells infected with baculovirus (microsomes)
T2 sequence (P27338 1-520): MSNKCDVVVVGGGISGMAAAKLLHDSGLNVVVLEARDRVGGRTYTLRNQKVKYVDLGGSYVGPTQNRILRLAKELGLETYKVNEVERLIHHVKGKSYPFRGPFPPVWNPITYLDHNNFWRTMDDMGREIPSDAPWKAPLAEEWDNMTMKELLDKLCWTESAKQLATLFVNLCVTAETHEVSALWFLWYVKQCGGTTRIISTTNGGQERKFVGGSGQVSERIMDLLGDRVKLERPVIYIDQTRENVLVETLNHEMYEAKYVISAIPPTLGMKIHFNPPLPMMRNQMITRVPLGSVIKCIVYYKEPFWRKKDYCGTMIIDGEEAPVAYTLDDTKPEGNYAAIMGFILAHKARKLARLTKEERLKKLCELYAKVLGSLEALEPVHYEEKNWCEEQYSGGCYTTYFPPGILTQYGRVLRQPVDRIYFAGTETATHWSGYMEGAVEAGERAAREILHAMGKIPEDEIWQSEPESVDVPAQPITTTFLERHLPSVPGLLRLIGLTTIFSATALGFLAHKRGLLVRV
Experimental: as §1

electric eel eeAChE = biological target: T3, electric eel eeAChE (Electrophorus electricus, UniProt O42275); assay: biochemical; conditions: for IC50: mean ± SD of three independent determinations, ~10 means 50–60% inhibition at 10 µM
T3 construct: Acetylcholinesterase from electric eel and butyrylcholinesterase from equine serum (Sigma Aldrich) were employed; purchased Sigma Aldrich; host or cells: electric eel (natural source)
T3 sequence (O42275 24-633): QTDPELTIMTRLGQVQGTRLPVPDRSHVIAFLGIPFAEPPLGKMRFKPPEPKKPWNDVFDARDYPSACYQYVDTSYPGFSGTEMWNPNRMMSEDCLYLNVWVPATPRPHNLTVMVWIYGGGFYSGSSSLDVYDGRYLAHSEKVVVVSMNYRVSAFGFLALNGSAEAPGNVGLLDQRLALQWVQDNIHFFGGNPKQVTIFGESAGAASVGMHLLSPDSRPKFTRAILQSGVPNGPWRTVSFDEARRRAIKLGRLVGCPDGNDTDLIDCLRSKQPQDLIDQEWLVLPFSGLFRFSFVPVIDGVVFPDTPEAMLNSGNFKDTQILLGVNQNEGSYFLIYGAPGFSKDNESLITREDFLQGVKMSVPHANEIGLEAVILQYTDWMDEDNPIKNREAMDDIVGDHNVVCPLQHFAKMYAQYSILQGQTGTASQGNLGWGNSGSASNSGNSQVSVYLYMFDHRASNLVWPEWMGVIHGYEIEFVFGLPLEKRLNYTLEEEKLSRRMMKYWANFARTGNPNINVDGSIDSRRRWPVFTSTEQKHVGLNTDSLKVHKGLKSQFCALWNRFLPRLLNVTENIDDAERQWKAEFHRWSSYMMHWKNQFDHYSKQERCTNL

human huAChE = human huAChE (Homo sapiens, UniProt P22303); assay: biochemical; type: biochemical; conditions: for inhibition at 10 µM: at 10 µM concentration, read-out: huAChE inhibition class
human huAChE, sequence (P22303 32-614): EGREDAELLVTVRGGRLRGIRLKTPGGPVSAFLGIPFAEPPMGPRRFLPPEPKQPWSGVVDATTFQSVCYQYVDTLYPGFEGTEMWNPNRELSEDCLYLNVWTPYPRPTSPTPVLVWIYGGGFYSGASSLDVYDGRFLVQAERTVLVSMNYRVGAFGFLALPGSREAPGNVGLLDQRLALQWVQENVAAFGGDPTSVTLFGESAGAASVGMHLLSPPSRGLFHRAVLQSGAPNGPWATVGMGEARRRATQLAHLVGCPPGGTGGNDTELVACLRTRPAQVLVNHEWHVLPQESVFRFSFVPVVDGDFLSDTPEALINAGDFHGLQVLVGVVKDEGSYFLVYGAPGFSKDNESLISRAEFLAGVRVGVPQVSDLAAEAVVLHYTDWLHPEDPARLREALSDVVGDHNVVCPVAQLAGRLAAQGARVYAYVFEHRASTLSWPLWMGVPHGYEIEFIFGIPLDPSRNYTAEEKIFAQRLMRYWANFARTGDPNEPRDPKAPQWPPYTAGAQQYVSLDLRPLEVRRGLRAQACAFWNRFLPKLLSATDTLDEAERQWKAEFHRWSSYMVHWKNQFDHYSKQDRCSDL
Experimental: The inhibition of human huAChE was also evaluated for five compounds.
(§2) Cholinesterase inhibition assays were carried out using the Ellman spectrophotometric method, modified for a 96-well plate format. Acetylcholinesterase from electric eel and butyrylcholinesterase from equine serum (Sigma Aldrich) were employed. The measurements were performed in triplicate using clear, flat-bottom polystyrene plates (Greiner Bio-One).

horse serum eqBChE = biological target: T4, horse serum eqBChE (Equus caballus, UniProt P81908); assay: biochemical; type: biochemical; conditions: at 10 µM concentration
T4 construct: Acetylcholinesterase from electric eel and butyrylcholinesterase from equine serum (Sigma Aldrich) were employed; purchased Sigma Aldrich; host or cells: equine serum
T4 sequence (P81908 whole entry): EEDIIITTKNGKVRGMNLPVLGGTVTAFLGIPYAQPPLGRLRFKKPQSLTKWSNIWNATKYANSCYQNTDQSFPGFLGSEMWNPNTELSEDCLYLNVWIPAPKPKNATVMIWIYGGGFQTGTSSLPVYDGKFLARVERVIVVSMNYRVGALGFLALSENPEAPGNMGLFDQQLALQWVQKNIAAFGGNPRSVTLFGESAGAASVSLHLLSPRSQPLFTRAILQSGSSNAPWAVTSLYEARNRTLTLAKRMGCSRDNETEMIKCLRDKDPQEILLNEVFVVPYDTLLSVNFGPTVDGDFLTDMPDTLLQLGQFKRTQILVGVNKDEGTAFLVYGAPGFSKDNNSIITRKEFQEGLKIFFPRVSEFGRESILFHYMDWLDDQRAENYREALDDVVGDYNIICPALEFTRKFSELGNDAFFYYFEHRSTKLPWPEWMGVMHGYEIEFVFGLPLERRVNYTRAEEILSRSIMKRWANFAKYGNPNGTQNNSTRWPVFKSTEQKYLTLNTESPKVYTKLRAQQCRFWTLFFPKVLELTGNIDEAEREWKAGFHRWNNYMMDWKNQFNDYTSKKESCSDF
Experimental: as §2

human MAO-A [2] = biological target: T1, human MAO-A; assay: Inhibition kinetics and time course of MAO-A inhibition; type: biochemical
Description: For the sake of clarity, the position of the Mannich base (-CH2NR2) on the main coumarin core will be indicated as C8, whereas the positions of Cl or Br and OMe on the 4-coumarin-3-yl moiety will be indicated as C6′ and C8′.
Time courses of MAO-A inhibition by 2b and 5b, using a spectrophotometric assay measuring the absorbance of 4-
(1 picture or pasted object on this page, not shown here)

[3] = Kinetic solubility in aqueous buffers (RP-HPLC); type: physicochemical; conditions: for solubility at 2 h: PBS buffer, 25 °C, pH 7.4, aqueous buffer, kinetic from dmso stock, read-out: Solubility Exp.; for experimental solubility in PBS pH 7.4, times higher than calculated with the ESOL model: PBS pH 7.4 vs ESOL
Experimental: Water solubility and lipophilicity parameters were measured following previously reported methods. […] The mixture was then separated by centrifugation at 2500 rpm for 3 min. Immediately after filtration, 100 µL of the filtrate was mixed with an equal volume of a 1:1 (v/v) DMSO and PBS (50 mM, pH 7.4, KCl 0.15 M) or HCl (0.01 M, pH 2, KCl 0.15 M) solution to prevent precipitation from the saturated solution and subsequently analyzed by HPLC. The peak area was compared to a calibration curve of the tested compound in MeOH. The analytical parameters were set as follows. Mobile phase: MeOH/water pH 2.8 (acetic acid 0.5% v/v) at different percentages depending on the retention time of each test compound; stationary phase: Phenomenex, Kinetex 5 µ, C8, (150 × 3 mm); flux: […]; injection: 2 µL; λ 330 nm. The analyses were performed on the Agilent HPLC 1260 Infinity Series Integrated System (Agilent Technologies, Milan, Italy).

[4] = Lipophilicity by RP-HPLC (log k'w); type: physicochemical; conditions: C18, extrapolated to 100% water mobile phase
Experimental: The lipophilicity of the five compounds in Table 4 was assessed by calculation and experimental approaches. As a calculated lipophilicity parameter (log Pcalc), we took from the SwissADME free website (http://www.swissadme.ch) the ‘Consensus Log Po/w’, that is, the arithmetic mean of octanol/water log Ps calculated by five methods (iLOGP, XLOGP3, WLOGP, MLOGP, and SILICOS-IT).
The lipophilicity parameters were determined by an RP-HPLC technique. In short, methanolic solutions of the examined compounds (1 mg·mL^−1) were analyzed by the Agilent 1260 infinite HPLC system (Agilent Technologies, Milan, Italy) equipped with a diode array detector (DAD), using a Phenomenex C18-column (Kinetex 5 μ, 100 Å, 150 × 3 mm) as the stationary phase and MeOH/water buffer mobile phases with different v/v composition (i.e., mobile phases containing 0.05 increments of MeOH volume fractions in 10 mM ammonium formate buffer at pH 4.5; φMeOH ranging between 0.70 and 0.20). The chromatographic measurements were carried out at 25 ± 1 °C, flow rate of 0.5 mL·min^−1, and detection at λ 330 nm. The log of capacity factors of each compound at different mobile phase compositions was calculated (log k′ = log (tR − t0)/t0, where tR represents the retention time of the solute and t0 is the column dead time). For each compound, the equation of the linear relationship between log k′ and φMeOH (R^2 > 0.991) on at least five datapoints, each from duplicate, was derived by regression analysis and the intercept at the y-axis (i.e., φMeOH = 0) calculated as the lipophilicity parameter log k′w.

[5] = Hydrolytic stability in aqueous buffers; conditions: 0.01 M HCl (pH 2.0) and 0.05 M PBS (pH 7.4), 37 ± 1 °C, 1 h, 100 μM
Experimental: Sample solutions at 100 μM (DMSO as the cosolvent, 1% v/v) were incubated at 37 ± 1 °C for 1 h, following shaking of the solution on an orbital shaker at 250 rpm and monitoring by RP-HPLC.

[6] = read-out: eqBChE inhibition class
[7] = PBS (50 mM, pH 7.4, 0.15 M KCl) at 25 ± 1 °C, n = 3
[8] = mean ± SD of three independent determinations, ~10 means 50–60% inhibition at 10 µM
[9] = at 10 µM concentration, mean ± SD

CN(C)Cc1c(O)ccc2c(-c3cc4cc(Cl)ccc4oc3=O)cc(=O)oc12 [Compound 2b, 8-((dimethylamino)methyl)-4-(6-chloro-2-oxo-2H-chromen-3-yl)-7-hydroxy-2H-chromen-2-one]
IC50 (human MAO-A [1]): 1.49 ± 0.49 µM | IC50 (human huMAO-B): ~10 µM | IC50 (electric eel eeAChE): ~10 µM | inhibition at 10 µM (human huAChE): < 10% | inhibition at 10 µM (horse serum eqBChE; [6]): < 10% | mode of inhibition of MAO-A (human MAO-A [2]; Michaelis–Menten and Lineweaver–Burk plots): competitive | Ki (human MAO-A [2]; human MAO-A, competitive inhibition, read-out: inhibition constant (Ki) MAO-A): 0.272 µM | reversibility of MAO-A inhibition (human MAO-A [2]; time course, absorbance of 4-hydroxyquinoline at 316 nm, inhibitor close to IC50): reversible | solubility at 2 h [3, 7]: 147 µM (≈ 58.5 µg/mL) | Log k’w (polycratic capacity factor) [4]: 2.45

CN(C)Cc1c(O)ccc2c(-c3cc4cc(Br)ccc4oc3=O)cc(=O)oc12 [Compound 2c, 8-((dimethylamino)methyl)-4-(6-bromo-2-oxo-2H-chromen-3-yl)-7-hydroxy-2H-chromen-2-one]
IC50 (human MAO-A [1]): 2.23 ± 0.22 µM | huMAO-A IC50 (human MAO-A [1]; [8]): single-digit micromolar | IC50 (human huMAO-B): ~10 µM | inhibition at 10 µM (electric eel eeAChE; [9]): 20% | inhibition at 10 µM (human huAChE): < 10% | inhibition at 10 µM (horse serum eqBChE; [6]): < 10% | solubility at 2 h [3, 7]: 141 µM (≈ 62.4 µg/mL) | experimental solubility in PBS pH 7.4, times higher than calculated with the ESOL model [3]: thirteen | Log k’w (polycratic capacity factor) [4]: 2.65 | hydrolytic stability [5]: stable over 1 h

CCN(CC)Cc1c(O)ccc2c(-c3cc4cc(Br)ccc4oc3=O)cc(=O)oc12 [Compound 3c, 8-((diethylamino)methyl)-4-(6-bromo-2-oxo-2H-chromen-3-yl)-7-hydroxy-2H-chromen-2-one]
IC50 (human MAO-A [1]): 3.04 ± 1.37 µM | huMAO-A IC50 (human MAO-A [1]; [8]): single-digit micromolar | inhibition at 10 µM (human huMAO-B; [9]): 42% | IC50 (electric eel eeAChE): < 10 µM and 1.56 µM | IC50 (human huAChE): 4.27 ± 0.58 µM | inhibition at 10 µM (horse serum eqBChE; mean ± SD, read-out: eqBChE % inhibition): 37% | Solubility Exp. [3, 7]: 181 µM (≈ 85.1 µg/mL) | experimental solubility in PBS pH 7.4, times higher than calculated with the ESOL model [3]: fifty; also recorded: fiftyfold | water solubility relative to 2c ([3]; at pH 7.4): 1.3 fold | Log k’w (polycratic capacity factor) [4]: 2.89

CCCCN(C)Cc1c(O)ccc2c(-c3cc4cc(Br)ccc4oc3=O)cc(=O)oc12 [Compound 5c]
IC50 (human MAO-A [1]; [8]): 2.52 ± 0.7 µM | huMAO-A IC50 (human MAO-A [1]; [8]): single-digit micromolar | IC50 (human huMAO-B; [8]): ~10 µM | eqBChE % inhibition (horse serum eqBChE; mean ± SD): [25 ± 11] % | hydrolytic stability [5]: stable over 1 h
